Article PMC9821130, “Testing Antimicrobial Properties of Selected Short Amyloids” (International Journal of Molecular Sciences, 2023)
Values after ≈ are worked out from the molar mass of the structure shown. Where two headings read alike, the source gives them in different places. Where a SMILES comes first, the peptide text is derived from it. Where no end group is shown, it is not given here.

Assays:
[1] = Thioflavin T fluorescence, fibril/aggregate formation in MHB; format: physicochemical; settings: ThT 20 µM, peptide 20 mg/mL in MHB, 37 °C, 24 h, reading every 30 s, ex 450 nm / em 490 nm
Description: In the second stage of our research, we decided to determine the propensity of the ten short amyloids (Table 1) to form fibrils under the conditions routinely used to evaluate AMP properties, i.e., upon their incubation in Mueller–Hinton Broth (MHB; for details, see Materials and Methods). These experiments could also allow us to speculate whether the amyloid properties of peptides go along with their antimicrobial activities. To detect the presence of protein fibrils, we used a benzothiazole dye (thioflavin T). Thioflavin T binds to β sheet-rich structures in amyloid aggregates and triggers a characteristic red shift, i.e., an increase in the wavelength in both excitation and emission maximum of the dye. […] The fluorescence spectra of the remaining peptides were indistinguishable from those of the medium itself (Figure S1).
The amyogenic abilities of the tested amyloids were determined in a kinetic reaction using the fluorescent dye thioflavin T (ThT), according to the modified method of Salinas et al.. […] ThT fluorescence intensity readings were performed in 96-well opaque microplates using a SpectraMax GeminiXPS spectrofluorometer at an excitation of λex 450 nm, an emission of λem 490 nm, and a cut-off point of λcut off 475 nm. Measurements were monitored for 24 h every 30 s. at 37 °C. The results were analysed in the SoftMax program. […]

[2] = tested on: Enterococcus faecium 2VRE; format: cell-based
Description: (§1) All bacterial strains were stored at −80 °C. The strains were revived using overnight cultures prepared in Tryptic Soy Broth (TSB, OXOID, Basingstoke, UK) and incubated under shaking conditions (MaxQTM6000 incubator shaker, Thermo Scientific, Waltham, MA, USA) at 125 rpm and 37 °C. Next, the purity of the strains was evaluated using enriched media (appropriate for the tested strains). For each experiment, a fresh 18–20 h culture was prepared on Tryptic Soy Agar (TSA, OXOID, Basingstoke, UK) for Gram-positive bacteria and MacConkey Agar (MC, OXOID, Basingstoke) for Gram-negative bacteria, and the samples were then transferred to fresh Mueller–Hinton Broth (MHB, OXOID, Basingstoke, UK), where the density was determined. Each culture was established at 10^8 CFU/mL and then diluted to a starting inoculum of 10^6 CFU/mL.
(§2) The microdilution method was used to measure the antimicrobial activity of amyloids. The test was performed according to the recommendations of EUCAST (ISO 20776–1:2019).
(§3) In 96-well microtiter plates, geometric dilutions of the tested amyloids were prepared from 128 to 0.25 µg/mL in 50 µL MHB. The stock solution (20 mg/mL) of the synthesized amyloids was prepared in MHB. The bacterial suspension prepared in MHB with a density of 10^6 CFU/mL was added to 50 µL of MHB containing the appropriate concentrations of amyloids, thus yielding a final bacterial concentration of 10^5 CFU/mL. Pure MHB was used as a negative control, while the control for bacterial growth was MHB medium in the presence of the strain used in the experiment. Antibiotic solutions were used as positive controls: colistin for Gram-negative bacteria and teicoplanin for Gram-positive bacteria.
(§4) Microtiter plates were incubated at 37 °C for 18 h for S. aureus, S. epidermidis, K. pneumoniae, E. coli, A. baumannii, and E. cloacae and 24 h for E. faecalis and E. faecium. Optimal density (OD600 nm) was measured in a plate reader (ASYS UVM340, BIOCHROM Ltd., Cambridge, UK). The absorbance results were converted to percentages (with respect to growth control) in the normalization process. The MIC (minimal inhibitory concentration) for each peptide was defined as the concentration at which the destruction of at least 90% of the initial inoculum was observed.
(§5) Each experiment was performed in three independent studies for each of the two isolates, and each replicate was performed in three separate wells. […] The MBC value was defined as the lowest concentration at which no growth of the tested strain was observed.
(§6) Linear regression analyses for viability of the HEK-293 cells subjected to ten amyloids, as well as the estimation of IC50 values, were determined in R Statistical Software using the model y = ax + 100% in the function lm from the stats package. The regression analyses for the viability of the bacterial cells and the estimation of MIC were conducted based on a linear mixed-effects model y = ax + 100% + (1|isolate/replicate) in lmer function from R package lme4 [73]. Isolates and replicates were assumed as random effects. The p-values of the determination coefficient and the slope were corrected using the Benjamini–Hochberg procedure for the obtained models.

[3] = tested on: Escherichia coli 1471; format: cell-based
Description: as §1, §2, §3, §4, §5, §6

[4] = tested on: Enterococcus faecalis 37VRE; format: cell-based
Description: as §1, §2, §3, §4, §5, §6

[5] = tested on: Klebsiella pneumoniae N111; format: cell-based
Description: as §1, §2, §3, §4, §5, §6

[6] = tested on: HEK-293 cells; format: cell-based, human; settings: HEK-293, MTT, 24 h exposure, 128 to 0.25 µg/mL; from linear regression y = ax + 100%
Description: HEK-293 human embryonic kidney cells (ATCC, CRL-1573) were cultured in DMEM medium supplemented with 10% fetal bovine serum and 1% penicillin/streptomycin solution. The cells were cultured at 37 °C, 5% CO2, until the concentration was about 10^6 per mL. A total of 2 × 10^5 cells/mL were seeded in 96-well tissue microplates (2 × 10^4 cells per well) and were allowed to adhere overnight under the conditions described above. Cytotoxicity tests were carried out on the cells prepared in this way.
Cells were incubated with varying concentrations from 128 to 0.25 µg/mL of the tested amyloid for 24 h exposure. The MTT assay has been previously described. After incubating the cells with the tested amyloids, the MTT reagent (Ck = 0.5 mg/mL) was added to a well of a microtiter plate. After 2 h incubation (37 °C, 5% CO2), the MTT medium was removed and replaced with DMSO, to which was then added Sorensen’s buffer (0.1 M glycine, 0.1 M NaCl; pH 10.5). In the MTT test, the cell viability is directly proportional to the absorbance (570 nm). The control cells for background absorbance contained the growth medium, with MTT only. For MTT analysis, at least three experiments were performed using cells from consecutive passages. […]

Molecule | MIC ([2]; 2VRE) [µg/mL] | MIC [3] [µg/mL] | MIC ([4]; 37VRE) [µg/mL] | other results
C[C@@H](O)[C@H](NC(=O)[C@H](Cc1ccccc1)NC(=O)[C@H](CS)NC(=O)[C@H](Cc1c[nH]c2ccccc12)NC(=O)[C@H](CS)NC(=O)[C@@H](N)CCCCN)C(=O)O [Amyloid 5] (H-KCWCFT-OH; N-terminus and C-terminus assumed) | 230 (≈ 292 µM) | 405 (≈ 515 µM) | – | Formation of aggregates (fibrils) in the MHB medium [1]: formed aggregates in the MHB medium
AIIGLM [Amyloid 8] | 280 | 372 | 496 | MIC ([5]; N111): 475 µg/mL
GGYLLG [Amyloid 9] | – | – | – | IC50 [6]: 171 µg/mL; MIC ([4]; E. faecalis 37VRE, calculated from linear mixed-effects regression model, beyond tested range (max 128 µg/mL)): 389 µg/mL; MIC ([2]; E. faecium 2VRE, calculated from linear mixed-effects regression model, beyond tested range (max 128 µg/mL), MIC = at least 90% destruction): 204 µg/mL; MIC ([5]; K. pneumoniae N111, calculated from linear mixed-effects regression model, beyond tested range (max 128 µg/mL)): 406 µg/mL
LIVAGK [Amyloid 3] | 301 | – | – | –
LKVKVL [Amyloid 7] | 326 | 345 | 418 | –
VCIVYK [Amyloid 2] | 177 | – | 364 | –
VGIVYK [Amyloid 10] | 295 | – | 193 | –
VKIVYK [Amyloid 6] | 179 | 319 | – | MIC ([5]; N111): 482 µg/mL
VQIVCK [Amyloid 1] | 196 | – | 228 | –
